Reference: US12139520B2 (priority 2020, dated 2024)
Bridge positions count the residues as written; N and C are the ends. Square brackets hold non-standard residues; d marks the D form. Peptide text beside a SMILES is read from it. Hyp = O=C(O)[C@@H]1C[C@@H](O)CN1; Cit = NC(=O)NCCC[C@H](N)C(=O)O

Experiments:
[1] = Physical stability of peptide analogues (Thioflavin T fibrillation); format: physicochemical; details: maximum ThT signal normalized between hAMY maximum and buffer background; 40° C., shaking, four days; pH 7 per table title
How it was run: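 ThT fluorescence (450 nm excitation, 480 nm emission; 4 μM dye) was read every 10 min over four days at 40° C under 700 rpm shaking stress, after 1 h in pH 4 acetate or pH 7 phosphate (50 mM). Peak smoothed signal expressed as percent, scaled between buffer background and hAMY maximum.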

hAMY3 receptor = target: T1, hAMY3 receptor (Homo sapiens, UniProt O60896+P30988); experiment: cAMP assay for in vitro receptor activation, hAMY3-R; format: cell-based; details: cAMP assay, hAMY3 receptor; read-out: hAMY3R EC50
T1 sequence (P30988 25-474): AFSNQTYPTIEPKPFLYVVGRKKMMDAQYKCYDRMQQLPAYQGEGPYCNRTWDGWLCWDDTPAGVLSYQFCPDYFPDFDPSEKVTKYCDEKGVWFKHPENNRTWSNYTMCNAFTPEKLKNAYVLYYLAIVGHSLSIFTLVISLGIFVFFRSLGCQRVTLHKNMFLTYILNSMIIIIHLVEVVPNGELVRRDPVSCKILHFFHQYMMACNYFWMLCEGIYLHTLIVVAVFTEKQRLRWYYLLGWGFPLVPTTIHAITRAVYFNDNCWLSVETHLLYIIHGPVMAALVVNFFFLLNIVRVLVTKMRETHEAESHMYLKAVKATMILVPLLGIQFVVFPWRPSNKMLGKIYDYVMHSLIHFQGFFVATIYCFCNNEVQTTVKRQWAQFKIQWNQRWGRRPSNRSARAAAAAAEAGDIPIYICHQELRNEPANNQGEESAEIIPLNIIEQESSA
T1 sequence (O60896 24-148 partner): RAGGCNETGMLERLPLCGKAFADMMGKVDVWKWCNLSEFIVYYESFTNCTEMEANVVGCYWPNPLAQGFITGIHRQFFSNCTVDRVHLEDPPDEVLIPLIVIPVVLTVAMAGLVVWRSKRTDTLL
How it was run: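 Stable hAMY3 cells; DPBS + 0.05% casein + 0.5 mM IBMX; graded compound doses, 30 min, RT; cAMP via HTRF Gs kit, TR-FRET read at 1 h.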

| SMILES | Max ThT signal (%) [1] [%] | EC50 (hAMY3 receptor) [nM] |
| --- | --- | --- |
| CC[C@H](C)[C@H](NC(=O)[C@H](CCC(N)=O)NC(=O)[C@H](Cc1c[nH]cn1)NC(=O)[C@H](C)NC(=O)[C@H](CC(C)C)NC(=O)[C@H](CCCNC(=N)N)NC(=O)[C@H](CCC(N)=O)NC(=O)[C@@H](NC(=O)[C@@H](NC(=O)[C@@H]1CSSC[C@H](NC(=O)CN)C(=O)N[C@@H](CCCNC(=N)N)C(=O)N[C@@H]([C@@H](C)O)C(=O)NCC(=O)N[C@@H]([C@@H](C)O)C(=O)N1)[C@@H](C)O)C(C)C)C(=O)N[C@@H](Cc1ccc(O)cc1)C(=O)N[C@@H](CCC(N)=O)C(=O)N[C@@H](Cc1ccccc1)C(=O)N[C@H](C(=O)N[C@@H](CC(=O)O)C(=O)N[C@@H](CCCCN)C(=O)N[C@@H](CC(=O)O)C(=O)N[C@@H](CCCCN)C(=O)N[C@@H](CC(=O)O)C(=O)N[C@@H](CC(N)=O)C(=O)N[C@H](C(=O)N[C@@H](C)C(=O)N1CCC[C@H]1C(=O)N[C@@H](CCCNC(=N)N)C(=O)N[C@H](C(=O)N[C@@H](CC(N)=O)C(=O)N[C@H](C(=O)N[C@@H](CO)C(=O)N1CCC[C@H]1C(=O)N[C@@H](CC(N)=O)C(=O)NCC(=O)N1C[C@H](O)C[C@H]1C(N)=O)C(C)C)[C@@H](C)O)C(C)C)[C@@H](C)O [compound 163] (H-GCRTGTCTVQRLAHQIYQFTDKDKDNVAPRTNVSPNG[Hyp]-NH2; disulfide 2-7; N-terminus assumed) | 2.000 | 0.053 |
| CC[C@H](C)[C@H](NC(=O)[C@H](CC(N)=O)NC(=O)[C@H](CO)NC(=O)[C@H](CCCNC(=N)N)NC(=O)[C@@H]1CCCN1C(=O)[C@H](C)NC(=O)[C@@H](NC(=O)[C@H](CC(N)=O)NC(=O)[C@H](CC(=O)O)NC(=O)[C@H](CCCCN)NC(=O)[C@H](CC(=O)O)NC(=O)[C@H](CCCCN)NC(=O)[C@H](CC(=O)O)NC(=O)[C@@H](NC(=O)[C@H](Cc1ccccc1)NC(=O)[C@H](CCC(N)=O)NC(=O)[C@H](Cc1ccc(O)cc1)NC(=O)[C@@H](NC(=O)[C@H](CCC(N)=O)NC(=O)[C@H](Cc1c[nH]cn1)NC(=O)[C@H](C)NC(=O)[C@H](CC(C)C)NC(=O)[C@H](CCCNC(=N)N)NC(=O)[C@H](CCC(N)=O)NC(=O)[C@@H](NC(=O)[C@@H](NC(=O)[C@@H]1CSSC[C@H](NC(=O)CN)C(=O)N[C@@H](CCCNC(=N)N)C(=O)N[C@@H]([C@@H](C)O)C(=O)NCC(=O)N[C@@H]([C@@H](C)O)C(=O)N1)[C@@H](C)O)C(C)C)[C@@H](C)CC)[C@@H](C)O)C(C)C)C(=O)NCC(=O)N1CCC[C@H]1C(=O)N[C@@H](CCC(N)=O)C(=O)NCC(=O)N1C[C@H](O)C[C@H]1C(N)=O [compound 165] (H-GCRTGTCTVQRLAHQIYQFTDKDKDNVAPRSNIGPQG[Hyp]-NH2; disulfide 2-7; N-terminus assumed) | 4.800 | 0.054 |
| CC[C@H](C)[C@H](NC(=O)[C@H](CCC(N)=O)NC(=O)[C@H](Cc1c[nH]cn1)NC(=O)[C@H](C)NC(=O)[C@H](CC(C)C)NC(=O)[C@H](CCCNC(=N)N)NC(=O)[C@H](CCC(N)=O)NC(=O)[C@@H](NC(=O)[C@@H](NC(=O)[C@@H]1CSSC[C@H](NC(=O)CN)C(=O)N[C@@H](CCCNC(=N)N)C(=O)N[C@@H](Cc2ccccc2)C(=O)NCC(=O)N[C@@H]([C@@H](C)O)C(=O)N1)[C@@H](C)O)C(C)C)C(=O)N[C@@H](Cc1ccc(O)cc1)C(=O)N[C@@H](CCC(N)=O)C(=O)N[C@@H](Cc1ccccc1)C(=O)N[C@H](C(=O)N[C@@H](CC(=O)O)C(=O)N[C@@H](CCCCN)C(=O)N[C@@H](CC(=O)O)C(=O)N[C@@H](CCCCN)C(=O)N[C@@H](CC(=O)O)C(=O)N[C@@H](CC(N)=O)C(=O)N[C@H](C(=O)N[C@@H](C)C(=O)N1CCC[C@H]1C(=O)N[C@@H](CCCNC(=N)N)C(=O)N[C@H](C(=O)N[C@@H](CC(N)=O)C(=O)N[C@H](C(=O)N[C@@H](CO)C(=O)N1CCC[C@H]1C(=O)N[C@@H](CCC(N)=O)C(=O)NCC(=O)N[C@@H](Cc1ccc(O)cc1)C(N)=O)[C@@H](C)CC)[C@@H](C)O)C(C)C)[C@@H](C)O [compound 140] (H-GCRFGTCTVQRLAHQIYQFTDKDKDNVAPRTNISPQGY-NH2; disulfide 2-7; N-terminus assumed) | 3.100 | 0.036 |

Other lines, results leading:

| Max ThT signal (%) [1] [%] | EC50 (hAMY3 receptor) [nM] | SMILES |
| --- | --- | --- |
| 8.550 | 0.018 | CC[C@H](C)[C@H](NC(=O)[C@H](CCC(N)=O)NC(=O)[C@H](C)NC(=O)[C@H](C)NC(=O)[C@H](CC(C)C)NC(=O)[C@H](CCCNC(N)=O)NC(=O)[C@H](CCC(N)=O)NC(=O)[C@@H](NC(=O)[C@@H](NC(=O)[C@@H]1CSSC[C@H](NC(=O)[C@@H](N)CCCCN)C(=O)N[C@@H](CC(N)=O)C(=O)N[C@@H]([C@@H](C)O)C(=O)N[C@@H](C)C(=O)N[C@@H]([C@@H](C)O)C(=O)N1)[C@@H](C)O)C(C)C)C(=O)N[C@@H](Cc1ccc(O)cc1)C(=O)N[C@@H](CCC(N)=O)C(=O)N[C@@H](Cc1ccccc1)C(=O)N[C@H](C(=O)N[C@@H](CC(=O)O)C(=O)N[C@@H](CCCCN)C(=O)N[C@@H](CC(=O)O)C(=O)N[C@@H](CCCCN)C(=O)N[C@@H](CC(=O)O)C(=O)N[C@@H](CC(N)=O)C(=O)N[C@H](C(=O)N[C@@H](C)C(=O)N1CCC[C@H]1C(=O)N1CCC[C@H]1C(=O)N[C@H](C(=O)N[C@@H](CC(N)=O)C(=O)N[C@H](C(=O)NCC(=O)N[C@@H](CO)C(=O)N[C@@H](CC(N)=O)C(=O)NCC(=O)N1C[C@H](O)C[C@H]1C(N)=O)C(C)C)[C@@H](C)O)C(C)C)[C@@H](C)O [compound 243] (H-KCNTATCTVQ[Cit]LAAQIYQFTDKDKDNVAPPTNVGSNG[Hyp]-NH2; disulfide 2-7; N-terminus assumed) |
| 13.600 | 0.027 | CC[C@H](C)[C@H](NC(=O)[C@H](CCC(N)=O)NC(=O)[C@H](Cc1c[nH]cn1)NC(=O)[C@H](C)NC(=O)[C@H](CC(C)C)NC(=O)[C@H](CCCNC(N)=O)NC(=O)[C@H](CCC(N)=O)NC(=O)[C@@H](NC(=O)[C@@H](NC(=O)[C@@H]1CSSC[C@H](NC(=O)[C@@H](N)CCCCN)C(=O)N[C@@H](CC(N)=O)C(=O)N[C@@H]([C@@H](C)O)C(=O)N[C@@H](C)C(=O)N[C@@H]([C@@H](C)O)C(=O)N1)[C@@H](C)O)C(C)C)C(=O)N[C@@H](Cc1ccc(O)cc1)C(=O)N[C@@H](CCC(N)=O)C(=O)N[C@@H](Cc1ccccc1)C(=O)N[C@H](C(=O)N[C@@H](CC(=O)O)C(=O)N[C@@H](CCCCN)C(=O)N[C@@H](CC(=O)O)C(=O)N[C@@H](CCCCN)C(=O)N[C@@H](CC(=O)O)C(=O)N[C@@H](CC(N)=O)C(=O)N[C@H](C(=O)N[C@@H](C)C(=O)N1CCC[C@H]1C(=O)N[C@@H](CCCNC(=N)N)C(=O)N[C@H](C(=O)N[C@@H](CCCCN)C(=O)N[C@H](C(=O)NCC(=O)N[C@@H](CO)C(=O)N[C@@H](CC(N)=O)C(=O)NCC(=O)N1C[C@H](O)C[C@H]1C(N)=O)C(C)C)[C@@H](C)O)C(C)C)[C@@H](C)O [compound 248] (H-KCNTATCTVQ[Cit]LAHQIYQFTDKDKDNVAPRTKVGSNG[Hyp]-NH2; disulfide 2-7; N-terminus assumed) |
| 21.300 | 0.028 | CC[C@H](C)[C@H](NC(=O)[C@H](CCCCN)NC(=O)[C@H](CO)NC(=O)[C@H](CCCNC(=N)N)NC(=O)[C@@H]1CCCN1C(=O)[C@H](C)NC(=O)[C@@H](NC(=O)[C@H](CC(N)=O)NC(=O)[C@H](CC(=O)O)NC(=O)[C@H](CCCCN)NC(=O)[C@H](CC(=O)O)NC(=O)[C@H](CCCCN)NC(=O)[C@H](CC(=O)O)NC(=O)[C@@H](NC(=O)[C@H](Cc1ccccc1)NC(=O)[C@H](CCC(N)=O)NC(=O)[C@H](Cc1ccc(O)cc1)NC(=O)[C@@H](NC(=O)[C@H](CCC(N)=O)NC(=O)[C@H](Cc1c[nH]cn1)NC(=O)[C@H](C)NC(=O)[C@H](CC(C)C)NC(=O)[C@H](CCCNC(N)=O)NC(=O)[C@H](CCC(N)=O)NC(=O)[C@@H](NC(=O)[C@@H](NC(=O)[C@@H]1CSSC[C@H](NC(=O)CN)C(=O)N[C@@H](CCCNC(=N)N)C(=O)N[C@@H](Cc2ccccc2)C(=O)NCC(=O)N[C@@H]([C@@H](C)O)C(=O)N1)[C@@H](C)O)C(C)C)[C@@H](C)CC)[C@@H](C)O)C(C)C)C(=O)NCC(=O)N1CCC[C@H]1C(=O)N[C@@H](CCC(N)=O)C(=O)NCC(=O)N1C[C@H](O)C[C@H]1C(N)=O [compound 284] (H-GCRFGTCTVQ[Cit]LAHQIYQFTDKDKDNVAPRSKIGPQG[Hyp]-NH2; disulfide 2-7) |
